Experimental data: patent US5639786A (priority 1994, dated 1997)
In brackets after ≈: the same amount, converted by molar mass.

Key:
[1] = system: influenza and parainfluenza viruses; settings: Palese et al., Virology 1974; cited from earlier work
[2] = prior art; cited from earlier work
[3] = system: influenza B/Victoria/102/85; experiment: Inhibition of influenza virus replication in vitro, plaque reduction in MDCK cells (Flu B); format: cell-based; settings: 72 h, influenza B/Victoria/102/85, MDCK cells, 3 days, read-out: I50 Plaque Assay (μg/ml) Flu B
[4] = target: N2 influenza neuraminidase (Influenza A virus (A/Aichi/2/1968(H3N2)), UniProt Q75VQ4); settings: read-out: NA1 (μg/ml), virion X31, MUN substrate, pH 6.5, 15 minutes at 37° C.
[5] = system: influenza A/Singapore/1/57 (H2N2); experiment: microbe, parasite or virus in culture; format: cell-based; settings: H2N2, MDCK, 72 h, read-out: I50 Plaque Assay (μg/ml) Flu A
[6] = system: Vibrio cholerae neuraminidase; settings: Meindl and Tuppy 1969; cited from earlier work

Sequence of N2 influenza neuraminidase (Influenza A virus (A/Aichi/2/1968(H3N2)), UniProt Q75VQ4) (Q75VQ4 whole entry, looked up): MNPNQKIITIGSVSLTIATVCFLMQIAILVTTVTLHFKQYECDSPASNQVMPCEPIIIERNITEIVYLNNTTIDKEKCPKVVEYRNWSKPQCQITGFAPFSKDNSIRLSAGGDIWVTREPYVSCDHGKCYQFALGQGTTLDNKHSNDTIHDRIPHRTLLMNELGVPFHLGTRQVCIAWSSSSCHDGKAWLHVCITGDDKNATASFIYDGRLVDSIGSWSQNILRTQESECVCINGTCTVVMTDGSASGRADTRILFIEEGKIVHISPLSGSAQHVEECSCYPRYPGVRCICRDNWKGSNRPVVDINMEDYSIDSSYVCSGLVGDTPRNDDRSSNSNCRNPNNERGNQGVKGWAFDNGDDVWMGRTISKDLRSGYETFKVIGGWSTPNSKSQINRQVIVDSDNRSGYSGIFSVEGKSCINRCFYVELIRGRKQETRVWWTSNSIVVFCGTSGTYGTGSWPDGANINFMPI

Compound	IC50 [3] [µg/mL]	IC50 [4] [nM]	IC50 [5] [µg/mL]	also measured
O=C(O)C1=CC(O)C(NC(=O)C(F)(F)F)C(C(O)C(O)CO)O1 (centres unmarked) [FANA, 2-deoxy-2,3-dehydro-N-trifluoroacetyl-neuraminic acid]	–	–	–	inhibition of multi-cycle replication of influenza and parainfluenza viruses in vitro [1]: inhibits multi-cycle replication; antiviral activity in vivo [2]: inactive in vivo
CC(=O)N[C@H]1[C@H]([C@H](O)[C@H](O)CO)OC(C(=O)O)=C[C@@H]1NC(N)=N[N+](=O)[O-] [Example 4, 5-(Acetylamino)-4-[[amino(nitroimino)methyl]amino]-2,6-anhydro-3,4,5-trideoxy-D-glycero-D-galacto-2-enonic acid]	24 (≈ 63.6 µM)	–	–	–
CC(=O)N[C@H]1[C@H]([C@H](O)[C@H](O)CO)OC(C(=O)O)=C[C@@H]1NC(=N)NO [Example 2, 5-(Acetylamino)-4-[[amino(hydroxyimino)methyl]amino]-2,6-anhydro-3,4,5-trideoxy-D-glycero-D-galacto-non-2-enonic acid]	< 0.1	1720	0.1 (≈ 0.287 µM)	–
CCOC(=O)N=C(N)N[C@H]1C=C(C(=O)O)O[C@@H]([C@H](O)[C@H](O)CO)[C@@H]1NC(C)=O [Example 5]	0.6 (≈ 1.48 µM)	–	–	–
CC(=O)N[C@H]1[C@H]([C@H](O)[C@H](O)CO)OC(C(=O)O)=C[C@@H]1NC(=N)NN [Example 1, 5-(Acetylamino)-4-[[amino(aminoimino)methyl]amino]-2,6-anhydro-3,4,5-trideoxy-D-glycero-D-galacto-non-2-enonic acid]	3 (≈ 8.64 µM)	3740	2.9 (≈ 8.35 µM)	–
CC(=O)N[C@H]1[C@H]([C@H](O)[C@H](O)CO)OC(C(=O)O)C[C@@H]1O (some centres unmarked) [2-deoxy-N-acetylneuraminic acid]	–	–	–	inhibition of Vibrio cholerae neuraminidase [6]: did not inhibit
